This note sets out measurements from patent US8669246B2, “Substituted amide compound” (Astellas Pharma Inc., priority 2009, dated 2014).

One data set has as its target T1, human LPA1 (Homo sapiens, UniProt Q92633).
T1 construct: expressed in transfected cells
Put plainly: Antagonistic action on human LPA1: inhibition of LPA-stimulated increase in intracellular calcium ion concentration in human LPA1-CHO cells. Type of data set: cell-based. The conditions noted are these: LPA 100 nM, Fluo-4/FLIPR calcium signal. How it is done:
Antagonistic Action of Compound of Formula (I) on Human LPA1
The antagonistic action on a human LPA 1 was evaluated with an index of an inhibitory action on the LPA-stimulated increase in intracellular calcium ion concentration, using human LPA 1-CHO cells [cells in which human LPA1 receptors are stably expressed in CHO (dhfr gene-deficient) cell lines].
Establishment of human LPA1-CHO cells was performed based on the basic genetic engineering techniques.
The established cells were maintained by passage in a nucleic acid-free α-MEM medium (Invitrogen) containing 10% FBS, 1% penicillin/streptomycin (Invitrogen), and 100 nM methotrexate, and before experiment, the medium was replaced with a medium that had been reduced to 1% of the […] concentration, then seeded in 96-well plates to 1.5×10e^5 cells/100 μL/well, and incubated overnight.
On the day of experiment, a 0.5 μM Fluo-4 solution [a solution prepared by adding 20 mM HEPES (Sigma), […] probenecid (Nacalai Tesque), 0.05% BSA, 0.5 μM Fluo-4 AM (Dojindo Laboratories), and 0.1% Pluronic […] (Molecular Probe Co.) to a Hanks Balanced Solt Solution (Invitrogen)] was added to the cells, and Fluo-4 was loaded on the cells by incubating for 2 hours at room temperature.
After loading Fluo-4, the Fluo-4 solution was replaced with a reaction solution [a solution obtained by adding 20 mM HEPES, […] probenecid, and 0.05% BSA to a Hanks Balanced Solt Solution], and then measurement was performed using a device for measuring an intracellular calcium concentration (FLIPR tetra, Molecular Devices Inc.).
A reaction solution in which the compound of the formula (I) (with a final concentration of 0.1 nM to 10 μM) had been dissolved was added to each of the wells, the signals were measured over time for 4 minutes, then a reaction solution in which LPA (final concentration 100 nM) had been dissolved was added thereto, and the signals were measured over time for 2 minutes. The difference between the maximum and minimum response during one minute from addition of LPA was calculated. The inhibitory activity was calculated, with a response when LPA only (not including the compound) was added was taken as 0% inhibition, and a response when a reaction solution not including both of the compound and LPA was added was taken as 100% inhibition. Then the 50% inhibitory concentration was calculated as an IC50 value (nM).
Human LPA1-CHO cells used in the present test were the cells with the same sequence as described in the pamphlet of International Publication WO 99/19513 were used. Further, Ex represents Example No. as denoted below.
(In general: Calcium flux is commonly read through the fluorescence of an indicator in the cells.)

Data set [1] relates to LPA-induced increase in urethral pressure. Put plainly: Inhibitory action on LPA-induced increase in urethral pressure in rats under anesthesia. Type of data set: in vivo, rat (male Wistar). Particulars: Rattus norvegicus, 5 min; 0.1 mg/kg intravenous, LPA (1-oleoyl) 3 mg/kg iv after 5 minutes, anesthetized rats, vs solvent; read-out: Inhibitory rate. The protocol:
Inhibitory Action of Compound of Formula (I) on LPA-Induced Increase in Urethral Pressure in Rats Under Anesthesia (with Intravenous Administration at 0.1 mg/kg) Male Wistar rats (Charles River, 9- to 12-week old) were anesthetized with urethane (1.2 g/kg ip), and held in the supine position on an operating table kept at 37° C. The lower abdominal portion was midline-incised and the bladder was thus exposed. A small portion of the bladder apex was incised, a microchip pressure transducer (Millar) was inserted antegrade, and then placed in the urethra, and the urethral pressure was recorded continuously. In addition, a cannula for administration of a drug was placed into the femoral vein. After about 1 hour of stabilization, the compound of formula (I) (0.1 mg/kg) was administered intravenously. After 5 minutes, LPA (1-oleoyl) was administered intravenously at 3 mg/kg, and the changes in the urethral pressure were recorded. The inhibitory rates (%) of the compound of the formula (I) on the LPA-stimulated increase in the urethral pressure compared with those after administration of the solvent of the compound of the formula (I) were recorded.

T1 sequence (Q92633 whole entry): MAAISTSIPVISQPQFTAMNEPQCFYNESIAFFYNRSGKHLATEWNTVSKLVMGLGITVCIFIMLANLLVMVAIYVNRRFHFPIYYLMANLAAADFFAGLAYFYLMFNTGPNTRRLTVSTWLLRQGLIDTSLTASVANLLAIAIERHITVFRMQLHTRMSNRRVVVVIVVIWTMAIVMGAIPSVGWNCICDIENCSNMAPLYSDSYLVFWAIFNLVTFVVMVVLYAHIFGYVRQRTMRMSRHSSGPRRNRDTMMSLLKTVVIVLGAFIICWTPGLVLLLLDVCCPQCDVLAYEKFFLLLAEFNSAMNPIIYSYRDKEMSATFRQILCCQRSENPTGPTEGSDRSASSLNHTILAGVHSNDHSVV

In the case of `COc1cc(C(=O)N(CCCc2ccccc2)Cc2nc(C(=O)NS(=O)(=O)c3cccs3)cs2)cc(OC)c1C` [Example 5, 2-{[(3,5-dimethoxy-4-methylbenzoyl)(3-phenylpropyl)amino]methyl}-N-(2-thienylsulfonyl)-1,3-thiazole-4-carboxamide], the IC50 at human LPA1 came to 7.8 nM.
Consider `CCNS(=O)(=O)[N-]C(=O)c1csc(CN(CCCc2ccccc2)C(=O)c2cc(OC)c(C)c(OC)c2)n1.[K+]`, for which the melting point was 203 to 205 °C.
Compound `COc1ccc(C2(C(=O)N(CCCc3ccccc3)Cc3nc(C(=O)NS(=O)(=O)N(C)C)c(C)s3)CC2)nc1` [Example 31] displayed a melting point of 125 to 126 °C.
Take `CNS(=O)(=O)NC(=O)c1nc(CN(CCCc2cccs2)C(=O)[C@H](O)c2ccc(OC)cc2)sc1C` [Example 283]: the melting point was 106 to 109 °C. In addition, at human LPA1, the IC50 worked out at 29 nM.
Consider `CNS(=O)(=O)NC(=O)c1csc(CN(CCCc2ccsc2)C(=O)c2cc(OC)c(C)c(OC)c2)n1` [Example 137], for which the IC50 at human LPA1 is 9.9 nM. Moreover, the inhibition in vivo at 0.1 mg/kg in data set [1] came to 17%.
Consider `CNS(=O)(=O)NC(=O)c1nc(CN(CCCc2ccccc2)C(=O)c2cc(OC)c(C)c(OC)c2)cs1` [Example 63], for which the inhibition in vivo at 0.1 mg/kg in data set [1] amounted to 28%.
In turn, `COc1cc(C(=O)N(CCCc2ccccc2)Cc2nc(C(=O)NS(N)(=O)=O)cs2)cc(OC)c1C` [Example 69] registered a melting point of 147 to 150 °C. Further, the IC50 at human LPA1 is 8.8 nM. Besides, the inhibition in vivo at 0.1 mg/kg in data set [1] was determined as 33%.
Regarding `COc1ccc([C@@H](O)C(=O)N(CCCc2ccccc2)Cc2nc(C(=O)NS(C)(=O)=O)c(C)s2)c(F)c1` [Example 277], the melting point was in the range of 121 to 123 °C. Moreover, at human LPA1, the IC50 came to 12 nM. Moreover, the inhibition in vivo at 0.1 mg/kg in data set [1] was found to be 42%.
With `COc1ccc(C2(C(=O)N(CCCc3ccco3)Cc3nc(C(=O)NS(=O)(=O)N(C)C)c(C)s3)CC2)nc1` [Example 221], the melting point is 112 to 113 °C.
On to `COc1cc(C(=O)N(CCCc2ccccc2)Cc2nc(C(=O)NS(C)(=O)=O)cs2)cc(OC)c1C` [Example 108], for which the melting point was in the range of 133 to 134 °C. In addition, the IC50 on human LPA1 turned out to be 11 nM.
In the same order, the values of `COc1cc(C(=O)N(CCCc2ccccc2F)Cc2nc(C(=O)NS(N)(=O)=O)cs2)cc(OC)c1C` [Example 113] are 145 to 146 °C and 12 nM.
In the case of `COc1cc(C(=O)N(CCCc2ccccc2)Cc2nc(C(=O)NS(=O)(=O)Nc3ccccn3)cs2)cc(OC)c1C` [Example 79], at human LPA1, the half-maximal inhibitory concentration (IC50) is 16 nM.
Turning to `COc1ccc(C2(C(=O)N(CCCc3ccc(C)o3)Cc3nc(C(=O)NS(=O)(=O)N(C)C)c(C)s3)CC2)nc1` [Example 200], the IC50 at human LPA1 was 33 nM. The inhibition in vivo at 0.1 mg/kg in data set [1] turned out to be 31%.
Turning to `C=Cc1c(OC)cc(C(=O)N(CCCc2ccccc2)Cc2nc(C(=O)NS(N)(=O)=O)cs2)cc1OC` [Example 130], the inhibition in vivo at 0.1 mg/kg in data set [1] amounted to 39%.
Turning to `COc1cc(C(=O)N(CCCc2ccccc2)Cc2nc(C(=O)NS(N)(=O)=O)co2)cc(OC)c1C` [Example 121], the melting point lay in the range of 136 to 141 °C. Further, on human LPA1, the IC50 came to 19 nM.
`CCS(=O)(=O)NC(=O)c1nc(CN(CCCc2ccccc2)C(=O)[C@H](O)c2ccc(OC)cc2F)sc1C` [Example 278] had a melting point of 111 to 112 °C.
In the case of `COc1cc(C(=O)N(CCCc2ccccc2)Cc2nc(C(=O)NS(=O)(=O)NC(C)=O)cs2)cc(OC)c1C` [Example 168, N-(acetylsulfamoyl)-2-{[(3,5-dimethoxy-4-methylbenzoyl)(3-phenylpropyl)amino]methyl}-1,3-thiazole-4-carboxamide], at human LPA1, the IC50 amounted to 17 nM.
In the case of `Cc1cc(C(=O)N(CCCc2ccccc2)Cc2nc(C(=O)NS(N)(=O)=O)c(Cl)s2)cc(C)c1O` [Example 147], on human LPA1, the IC50 was 16 nM.
Consider `COc1cc(C(=O)N(CCCc2ccccc2)Cc2csc(C(=O)NS(N)(=O)=O)n2)cc(OC)c1C` [Example 62], for which the melting point was 173 to 175 °C. Besides, the IC50 at human LPA1 stood at 11 nM.
In the case of `CNS(=O)(=O)NC(=O)c1nc(CN(CCCc2ccccc2)C(=O)c2cc(OC)c(Cl)c(OC)c2)sc1Cl` [Example 162], the inhibition in vivo at 0.1 mg/kg in data set [1] was 21%.
As for `COc1ccc([C@@H](O)C(=O)N(CCCc2ccccc2)Cc2nc(C(=O)NS(=O)(=O)N(C)C)c(C)s2)cc1` [Example 290], the melting point lay in the range of 110 to 112 °C. For the same compound, the IC50 at human LPA1 is 33 nM.
`COc1ccc(C(O)C(=O)N(CCCc2ccccc2)Cc2nc(C(=O)NS(=O)(=O)N(C)C)c(C)s2)cn1` (stereo not drawn) [Example 28]: the melting point lay in the range of 178 to 179 °C.
As for `COc1cc(C(=O)N(CCCc2ccccc2)Cc2nc(C(=O)NS(=O)(=O)CC(C)O)cs2)cc(OC)c1C` (stereo not drawn) [Example 175], the IC50 at human LPA1 stood at 23 nM.
For `COc1cc(C(=O)N(CCCc2ccc(Cl)s2)Cc2nc(C(=O)NS(N)(=O)=O)cs2)cc(OC)c1C` [Example 110], the melting point was 154 to 156 °C. On human LPA1, the IC50 stood at 11 nM.
As for `COc1cc(C(=O)N(CCCc2ccccc2F)Cc2nc(C(=O)NS(=O)(=O)N(C)C)cs2)cc(OC)c1C` [Example 119], the melting point was 128 to 131 °C.
Regarding `COc1cc(C(=O)N(CCCc2ccccc2)Cc2nc(C(=O)NS(C)(=O)=O)c(C)s2)cc(OC)c1C` [Example 109], the melting point was 128 to 131 °C. Also, the IC50 at human LPA1 stood at 22 nM.
As for `COc1cc(C(=O)N(CCCc2ccccc2)Cc2nc(C(=O)NS(N)(=O)=O)cs2)cc(OC)c1Br` [Example 132], the inhibition in vivo at 0.1 mg/kg in data set [1] worked out at 42%.
Regarding `COc1cc(C(=O)N(CCCc2ccccc2)Cc2ccc(C(=O)NS(N)(=O)=O)o2)cc(OC)c1C` [Example 123], the IC50 at human LPA1 came out at 7.5 nM. Besides, the inhibition in vivo at 0.1 mg/kg in data set [1] worked out at 39%.
As to `COc1cc(C(=O)N(CCCc2cc(F)ccc2F)Cc2nc(C(=O)NS(N)(=O)=O)cs2)cc(OC)c1C` [Example 115], the 50% inhibitory concentration (IC50) at human LPA1 came to 16 nM.
The compound `COCc1c(OC)cc(C(=O)N(CCCc2ccccc2)Cc2nc(C(=O)NS(=O)(=O)NOC)c(C)s2)cc1OC` [Example 161] gave a melting point of 151 to 153 °C.
For the compound `COc1cc(C(=O)N(CCCc2ccccc2)Cc2nc(C(=O)NS(=O)(=O)CCO)cs2)cc(OC)c1C` [Example 167], the 50% inhibitory concentration (IC50) on human LPA1 is 12 nM. Further, the inhibition in vivo at 0.1 mg/kg in data set [1] was found to be 35%.
In turn, `COc1ccc(C2(C(=O)N(CCCc3cccc(F)c3)Cc3nc(C(=O)[N-]S(=O)(=O)N(C)C)c(C)s3)CC2)nc1.[K+]` yielded a melting point of 219 to 221 °C.
In the case of `COc1ccc(C2(C(=O)N(CCCc3ccco3)Cc3nc(C(=O)NS(=O)(=O)N(C)C)c(C)s3)CC2)cc1` [Example 233], on human LPA1, the half-inhibitory concentration (IC50) amounted to 22 nM. For the same compound, in data set [1], the inhibition in vivo at 0.1 mg/kg worked out at 38%.
`COc1ccc([C@@H](O)C(=O)N(CCCc2cccs2)Cc2nc(C(=O)NS(=O)(=O)N(C)C)c(C)s2)cc1` [Example 256] gave a melting point of 118 to 120 °C.
Take `COc1ccc([C@@H](O)C(=O)N(CCCc2ccccc2)Cc2nc(C(=O)NS(=O)(=O)C(C)C)c(C)s2)cc1` [Example 285]: the melting point is 137 to 138 °C. Moreover, on human LPA1, the IC50 was 32 nM.
The compound `CCS(=O)(=O)NC(=O)c1nc(CN(CCCc2cccs2)C(=O)[C@H](O)c2ccc(OC)cc2)sc1C` [Example 272] had a melting point of 124 to 126 °C. For the same compound, on human LPA1, the IC50 was 44 nM.
As for `COc1cc(C(=O)N(CCCc2ccc(C)o2)Cc2nc(C(=O)NS(N)(=O)=O)cs2)cc(OC)c1C` [Example 111], the concentration for half-maximal inhibition (IC50) at human LPA1 is 6.6 nM. In addition, in data set [1], the inhibition in vivo at 0.1 mg/kg turned out to be 56%.

As a reminder, the IC50 is the concentration at which inhibition is half-maximal. A word on the melting point: it is the temperature of the solid-liquid transition.
